Test results as given in patent publication US20240315993A1, “ANTIPARASITIC COMPOUNDS” (Intervet Inc., priority 2021, published 2024).
pEC50: −log10 of the molar value.

Assays:
[1] = tested on: Copepodids (juvenile sea lice stage of Lepeophtheirus salmonis); assay: Juvenile sea lice contact assay; details: Lepeophtheirus salmonis, ~24 h, read-out: Sea lice inhibition (% of dead+damaged copepodids); for inhibition at 0.01 µM: 10 nM in seawater
Protocol: Copepodids (juvenile sea lice stage of Lepeophtheirus salmonis) were exposed to seawater spiked with declining concentrations of a test compound (dissolved in a DMSO sea-water mixture). Sea lice inhibition (% of dead+damaged copepodids) was assessed after approximately 24 hours of continuous exposure. The vitality of used parasites was confirmed in a negative (solvent) control group.

[2] = tested on: Mobile stages of sea lice (pre-adults, adults of Lepeophtheirus salmonis); assay: Adult sea lice contact assay; details: pre-adults/adults, assessed after ~1 and 24 h, read-out: EC50 (sea lice inhibition, dead+damaged)
Protocol: Mobile stages of sea lice (i.e., pre-adults, adults of Lepeophtheirus salmonis) were exposed to seawater spiked with declining concentrations of a test compound (dissolved in a PEG sea-water mixture). Sea lice inhibition (% of dead+damaged sea lice) was assessed after approximately 1 and 24 hours of continuous exposure in comparison to a negative (solvent) control group.

[3] = tested on: juvenile soft ticks (Ornithodoros moubata); assay: Guinea pig - efficacy against argaside tick; assay type: in vivo; details: for effective to control ticks: at least until Day 10, both administration routes (oral, subcutaneous)
In short: (§1)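 Guinea pigs given 5 mg/kg test compound orally (gavage) or s.c. in 10% DMF/emulsifier plus 90% water for injection, with local co-infestations of Ornithodoros moubata juveniles and Cimex lectularius at several post-treatment times. Engorged parasites scored dead/damaged about 24 h after collection; % inhibition versus pretreatment baseline by modified Schneider-Orelli formula.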

[4] = tested on: bed bugs (Cimex lectularius); assay: Guinea pig - efficacy against bed bug; assay type: in vivo; details: for effective to control bed bugs: 5 mg/kg, at least until Day 10, both administration routes (oral, subcutaneous)
In short: as §1

[5] = tested on: Lepeophtheirus salmonis; assay: Salmon - in vivo efficacy against sea lice using gavage administration; details: 5 mg/kg once by gavage, counted around day 28; for therapeutic efficacy against juvenile sea lice (% reduction vs control): day -3 infestation
Protocol: Salmon (Salmo solar) were treated once orally by gavage at a dose of 5 mg/kg bodyweight per fish (Day 0). As formulation DMSO 5%/fish oil 95% was used. Salmon of the negative control group received only the excipients of the formulation.
The fish were infested with Lepeophtheirus salmonis copepodids twice before treatment (i.e., around day −28 and day −3) and once after treatment (i.e., day 17).
Around day 28 (end of animal phase), fish were euthanized, and lice on each fish were classified ((pre-)adult or juvenile stage) and counted. […] Efficacy is expressed as a % reduction of sea lice in treated groups versus a control group, using the Abbott's formula.

[6] = tested on: Lepeophtheirus salmonis; assay: as above; details: po, 168 h, read-out: therapeutic efficacy against (pre-)adult sea lice (% reduction vs control), salmon, 5 mg/kg once by gavage, day -28 infestation, counted day 7
[7] = tested on: Rhipicephalus sanguineus or Haemaphysalis elliptica ticks; assay: Dog - efficacy against ticks; assay type: in vivo; details: for therapeutic efficacy against ticks (active = efficacy ≥80 percent): D2
Protocol: (§2) Beagle dogs were infested (whole body) with 80 Ctenocephalides felis fleas and 50 Rhipicephalus sanguineus or Haemaphysalis elliptica ticks (sex ratio 1:1) two days before the treatment day (Day 0), and repeatedly thereafter. Dogs of treatment groups were treated with 10 mg/kg bodyweight of a test compound orally (compound weighed in gelatin capsule), topically (spot-on, DMA 92%/DEET 8%) or subcutaneously (PEG 200 90%/water for injection 10%). Dogs of the negative control group received only an empty gelatin capsule orally and the spot-on formulation excipients topically.
(§3) Compounds with efficacy ≥80 percent were found active.

[8] = tested on: Ctenocephalides felis fleas; assay: Dog - efficacy against fleas; assay type: in vivo; details: for therapeutic efficacy against fleas (active = efficacy ≥80 percent): D2
Protocol: as §2, §3

[9] = tested on: Rhipicephalus microplus; assay: Cattle - efficacy against one-host tick; assay type: in vivo; details: 1 mg/kg pour on in Imwitor 988+Miglyol 840
Protocol: Cattle were infested (whole body) with up to 3000 Rhipicephalus microplus larvae two or three times per week before and after the treatment day (Day 0). Cattle of treatment groups were treated subcutaneously or topically (spray or pour-on) at a dose of 1 mg/kg bodyweight of a test compound. As subcutaneous formulation either 2-pyrrolidon 50%/Tween 80 50% or NMP 60%/PEG300 40% was used. As topical formulation either a spray solution (DMF/Emulsifier 2%/tap water 98%) (Compound 4) or a DMA 92%/DEET 8% pour-on solution (all other compounds) or a pour-on solution containing Imwitor 988 (20%)+Miglyol 840 (QS) (Compound 453 and Compound 466) or a pour-on solution containing Miglyol 840 (QS) (Compound 453) was used. Cattle of the negative control group received only the formulation excipients of the respective administration route.
Fully engorged female ticks dropping from cattle were collected daily after treatment and counted in treatment and control groups. Efficacy was expressed using the standard ADEQ analysis method (ADEQ calculation in accordance with WAAVP guidelines for evaluating the efficacy of acaricides against ticks on ruminants; Veterinary parasitology 136 (2006) 29-43). Compounds with efficacy ≥80 percent were found active/effective. Onset of efficacy means the first Day with efficacy ≥80 percent. Duration of efficacy means the last Day with efficacy ≥80 percent.

[10] = 5 mg/kg subcutaneous, after 7 days
[11] = 5 mg/kg subcutaneous, after 10 days

For O=C(Nc1c(F)cc(F)cc1F)c1cc(NC(=O)[C@H]2[C@H](c3cc(Cl)cc(Cl)c3)C2(Cl)Cl)ccc1Cl [Compound 449], the inhibition at 0.01 µM [1] was 100%, the pEC50 [2] was 7.60 to 8.00 and the “activity against tick nymphs (≥80% inhibition, killed+damaged)” value ([3]; 5 mg/kg oral, Day 0) was “immediate activity”. The “activity against tick nymphs (≥80% inhibition, killed+damaged)” value ([3]; 5 mg/kg subcutaneous, Day 0) was “immediate activity”, the “activity against tick nymphs (≥80% inhibition, killed+damaged)” value [3, 10] was “activity” and the “activity against bed bugs (≥80% inhibition, killed+damaged)” value ([4]; 5 mg/kg oral, Day 0) was “immediate activity”. The “activity against bed bugs (≥80% inhibition, killed+damaged)” value ([4]; 5 mg/kg subcutaneous, Day 0) was “immediate activity”, the “therapeutic efficacy against juvenile sea lice (% reduction vs control)” value (shortened to “therapeutic efficacy … (% reduction vs control)”) [5] was 80% and the inhibition in vivo at 5 mg/kg [6] was 80%.
With O=C(Nc1ccc(F)cc1F)c1cc(NC(=O)[C@H]2[C@H](c3cc(F)c(F)c(F)c3)C2(Cl)Cl)ccc1Cl [Compound 451] the inhibition at 0.001 µM ([1]; 1 nM in seawater) was 100%, the pEC50 [2] was no less than 8.00 and the “activity against tick nymphs (≥80% inhibition, killed+damaged)” value ([3]; 5 mg/kg oral, Day 0) was “immediate activity”. For the same molecule, the “activity against tick nymphs (≥80% inhibition, killed+damaged)” value ([3]; 5 mg/kg oral, after 7 days) was “activity”, the “activity against tick nymphs (≥80% inhibition, killed+damaged)” value ([3]; 5 mg/kg oral, after 10 days) was “activity” and the “activity against tick nymphs (≥80% inhibition, killed+damaged)” value ([3]; 5 mg/kg subcutaneous, Day 0) was “immediate activity”. For the same molecule, the “activity against tick nymphs (≥80% inhibition, killed+damaged)” value [3, 10] was “activity”, the “activity against tick nymphs (≥80% inhibition, killed+damaged)” value [3, 11] was “activity” and the “effective to control ticks” value ([3]; 5 mg/kg) was 100%. For the same molecule, the “activity against bed bugs (≥80% inhibition, killed+damaged)” value ([4]; 5 mg/kg oral, Day 0) was “immediate activity”, the “activity against bed bugs (≥80% inhibition, killed+damaged)” value ([4]; 5 mg/kg oral, after 7 days) was “activity” and the “activity against bed bugs (≥80% inhibition, killed+damaged)” value ([4]; 5 mg/kg oral, after 10 days) was “activity”. The “activity against bed bugs (≥80% inhibition, killed+damaged)” value ([4]; 5 mg/kg subcutaneous, Day 0) was “immediate activity”, the “activity against bed bugs (≥80% inhibition, killed+damaged)” value [4, 10] was “activity” and the “activity against bed bugs (≥80% inhibition, killed+damaged)” value [4, 11] was “activity”. The “effective to control bed bugs” value [4] was 100% and the inhibition in vivo at 5 mg/kg [6] was 80%.
O=C(Nc1cnc(F)cc1F)c1cc(NC(=O)[C@H]2[C@H](c3cc(Cl)cc(Cl)c3)C2(Cl)Cl)ccc1Cl [Compound 455] was tested, and the inhibition at 0.01 µM [1] was 100%, the pEC50 [2] was no less than 8.00 and the “activity against tick nymphs (≥80% inhibition, killed+damaged)” value ([3]; 5 mg/kg oral, Day 0) was “immediate activity”. The “activity against tick nymphs (≥80% inhibition, killed+damaged)” value ([3]; 5 mg/kg subcutaneous, Day 0) was “immediate activity”, the “duration of efficacy, subcutaneous compared with oral administration” value ([3]; 5 mg/kg, ticks and bed bugs) was “longer duration of efficacy” and the “activity against bed bugs (≥80% inhibition, killed+damaged)” value ([4]; 5 mg/kg oral, Day 0) was “immediate activity”. For the same molecule, the “activity against bed bugs (≥80% inhibition, killed+damaged)” value ([4]; 5 mg/kg subcutaneous, Day 0) was “immediate activity”, the “therapeutic efficacy … (% reduction vs control)” value [5] was 100% and the inhibition in vivo at 5 mg/kg [6] was 100%.
With O=C(Nc1c(F)ccnc1F)c1cc(NC(=O)[C@H]2[C@H](c3cc(Cl)cc(Cl)c3)C2(Cl)Cl)ccc1Cl [Compound 456] the inhibition at 0.01 µM [1] was 100%, the pEC50 [2] was no less than 8.00 and the “activity against tick nymphs (≥80% inhibition, killed+damaged)” value ([3]; 5 mg/kg oral, Day 0) was “immediate activity”. For the same molecule, the “activity against tick nymphs (≥80% inhibition, killed+damaged)” value ([3]; 5 mg/kg subcutaneous, Day 0) was “immediate activity”, the “activity against bed bugs (≥80% inhibition, killed+damaged)” value ([4]; 5 mg/kg oral, Day 0) was “immediate activity” and the “activity against bed bugs (≥80% inhibition, killed+damaged)” value ([4]; 5 mg/kg subcutaneous, Day 0) was “immediate activity”. The “prophylactic efficacy at re-infestation on Day 17 (% reduction vs control)” value [5] was 80%, the “therapeutic efficacy … (% reduction vs control)” value [5] was 100% and the inhibition in vivo at 5 mg/kg [6] was 80%.
In the case of O=C(Nc1ncc(F)cn1)c1cc(NC(=O)[C@H]2[C@H](c3cc(Cl)cc(Cl)c3)C2(Cl)Cl)ccc1Cl [Compound 460], the inhibition at 0.01 µM [1] was 100%, the pEC50 [2] was no less than 8.00 and the “activity against tick nymphs (≥80% inhibition, killed+damaged)” value ([3]; 5 mg/kg oral, Day 0) was “immediate activity”. The “activity against tick nymphs (≥80% inhibition, killed+damaged)” value ([3]; 5 mg/kg subcutaneous, Day 0) was “immediate activity”, the “activity against bed bugs (≥80% inhibition, killed+damaged)” value ([4]; 5 mg/kg oral, Day 0) was “immediate activity” and the “activity against bed bugs (≥80% inhibition, killed+damaged)” value ([4]; 5 mg/kg oral, after 7 days) was “activity”. The “activity against bed bugs (≥80% inhibition, killed+damaged)” value ([4]; 5 mg/kg subcutaneous, Day 0) was “immediate activity”, the “activity against bed bugs (≥80% inhibition, killed+damaged)” value [4, 10] was “activity” and the “therapeutic efficacy … (% reduction vs control)” value [5] was 100%. The inhibition in vivo at 5 mg/kg [6] was 100%.
For O=C(Nc1cnc(F)cc1F)c1cc(NC(=O)[C@H]2[C@H](c3cc(Cl)c(Cl)c(Cl)c3)C2(Cl)Cl)ccc1Cl [Compound 466], the inhibition at 0.1 µM ([1]; 100 nM in seawater) was 100%, the pEC50 [2] was no less than 8.00 and the “activity against tick nymphs (≥80% inhibition, killed+damaged)” value ([3]; 5 mg/kg oral, Day 0) was “immediate activity”. For the same molecule, the “activity against tick nymphs (≥80% inhibition, killed+damaged)” value ([3]; 5 mg/kg oral, after 7 days) was “activity”, the “activity against tick nymphs (≥80% inhibition, killed+damaged)” value ([3]; 5 mg/kg oral, after 10 days) was “activity” and the “activity against tick nymphs (≥80% inhibition, killed+damaged)” value ([3]; 5 mg/kg oral, after 14 days) was “activity”. For the same molecule, the “activity against tick nymphs (≥80% inhibition, killed+damaged)” value ([3]; 5 mg/kg subcutaneous, Day 0) was “immediate activity”, the “activity against tick nymphs (≥80% inhibition, killed+damaged)” value [3, 10] was “activity” and the “effective to control ticks” value ([3]; 5 mg/kg) was 100%. The “activity against bed bugs (≥80% inhibition, killed+damaged)” value ([4]; 5 mg/kg oral, Day 0) was “immediate activity”, the “activity against bed bugs (≥80% inhibition, killed+damaged)” value ([4]; 5 mg/kg oral, after 7 days) was “activity” and the “activity against bed bugs (≥80% inhibition, killed+damaged)” value ([4]; 5 mg/kg oral, after 10 days) was “activity”. The “activity against bed bugs (≥80% inhibition, killed+damaged)” value ([4]; 5 mg/kg oral, after 14 days) was “activity”, the “activity against bed bugs (≥80% inhibition, killed+damaged)” value ([4]; 5 mg/kg oral, after 17 days) was “activity” and the “activity against bed bugs (≥80% inhibition, killed+damaged)” value ([4]; 5 mg/kg subcutaneous, Day 0) was “immediate activity”. For the same molecule, the “activity against bed bugs (≥80% inhibition, killed+damaged)” value [4, 10] was “activity”, the “activity against bed bugs (≥80% inhibition, killed+damaged)” value [4, 11] was “activity” and the “activity against bed bugs (≥80% inhibition, killed+damaged)” value ([4]; 5 mg/kg subcutaneous, after 14 days) was “activity”. The “activity against bed bugs (≥80% inhibition, killed+damaged)” value ([4]; 5 mg/kg subcutaneous, after 17 days) was “activity”, the “effective to control bed bugs” value [4] was 100% and the “efficacy against ticks in dogs (conclusion)” value ([7]; 10 mg/kg) was “therapeutic efficacy”. The “therapeutic efficacy against ticks (active = efficacy ≥80 percent)” value ([7]; 10 mg/kg oral) was “active”, the “therapeutic efficacy against ticks (active = efficacy ≥80 percent)” value ([7]; 10 mg/kg topical spot-on) was “active” and the “efficacy against fleas in dogs (conclusion)” value ([8]; 10 mg/kg) was “therapeutic efficacy”. For the same molecule, the “therapeutic efficacy against fleas (active = efficacy ≥80 percent)” value ([8]; 10 mg/kg oral) was “active”, the “therapeutic efficacy against fleas (active = efficacy ≥80 percent)” value ([8]; 10 mg/kg topical spot-on) was “active” and the “duration of efficacy (last Day with efficacy ≥80 percent)” value [9] was 87 days. The “onset of efficacy (first Day with efficacy ≥80 percent)” value [9] was 1 days, the “therapeutic efficacy … (% reduction vs control)” value [5] was 80% and the inhibition in vivo at 5 mg/kg [6] was 80%.
